Values of other authors in patent publication US20070036839A1, “Phosphorylated glucomannane polysaccharides containing 1-6 and 1-2 linkages increase weight gain in poultry” (priority 2005, published 2007).

System: macrophages
Settings: single low dose by intramuscular injection; cited from earlier work

In the case of Acemannan [ACM 1], the activation of macrophages is listed as “systemic immuno-modulated activation of macrophages”.
